Experimental findings from patent US11524940B1, “Inhibitors of cysteine proteases and methods of use thereof” (priority 2020, dated 2022) are described below.

The structures appear in SMILES notation. pEC50: −log10 of the molar value.

One experiment deals with 229E Mpro (Human coronavirus 229E (HCoV-229E), UniProt P0C6X1). Kind of experiment: 229E Mpro activity. Conditions: 229E Mpro EC50. The class given is biochemical.
Chain of 229E Mpro (P0C6X1 2966-3267 limits assumed): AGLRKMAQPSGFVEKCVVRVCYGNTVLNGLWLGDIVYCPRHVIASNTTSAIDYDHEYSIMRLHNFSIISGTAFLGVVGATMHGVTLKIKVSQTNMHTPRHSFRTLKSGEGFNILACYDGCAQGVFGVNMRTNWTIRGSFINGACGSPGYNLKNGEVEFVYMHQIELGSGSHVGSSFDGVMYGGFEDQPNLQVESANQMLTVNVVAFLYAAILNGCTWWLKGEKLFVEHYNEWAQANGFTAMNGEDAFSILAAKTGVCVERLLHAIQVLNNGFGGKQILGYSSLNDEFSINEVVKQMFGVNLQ
Procedure: Compounds are assayed using standard methods to assess compound activity and IC50. […] The assay buffer contains 20 mM of Tris-HCl (pH 7.3), 100 mM of NaCl, 1 mM of EDTA, 5mM of TCEP and 0.1% BSA.
One may read the pEC50 as the negative decadic logarithm of the EC50, by convention in mol/L. On to `COCCOCCOc1cccc2[nH]c(C(=O)NC(CC(C)(C)C)C(=O)NC(C#N)CC3CCCNC3=O)cc12` (single isomer, unassigned) [875 (Isomer 2)], for which the pEC50 is greater than 5.70.

On to `CC1(C)CCC(C[C@@H](C#N)NC(=O)[C@H](CC2CC2)NC(=O)c2cc3cccc(Cl)c3[nH]2)C(=O)N1` (single isomer, unassigned) [Compound 749 (Isomer 1)], for which the pEC50 was 5.00 to 5.70.

The same experiment, now with this note: read-out: 229E Mpro EC50.
`COCCOCCOc1cccc2[nH]c(C(=O)NC(CC(C)(C)C)C(=O)NC(C#N)CC3CCCNC3=O)cc12` (single isomer, unassigned) [875 (Isomer 3)]: the negative-log EC50 (pEC50) was 4.52 to 5.00.

As to `N#C[C@H](C[C@@H]1CCNC1=O)NC(=O)C1CC2(CCCCC2)CN1C(=O)c1cc2ccc(Cl)cc2[nH]1` (single isomer, unassigned) [878 (Isomer 1)], the pEC50 was greater than 5.70.

As for `N#C[C@H](C[C@@H]1CCNC1=O)NC(=O)C1CC2(CCCCC2)CN1C(=O)c1cc2ccc(Cl)cc2[nH]1` (single isomer, unassigned) [878 (Isomer 2)], the pEC50 is 4.52 to 5.00.

Consider `COc1ccc2[nH]c(C(=O)N3CC4(CCCCC4)CC3C(=O)N[C@H](C#N)C[C@@H]3CCNC3=O)cc2c1Cl` (single isomer, unassigned) [880 (Isomer 1)], for which the negative logarithm of the EC50 (pEC50) is 4.52 to 5.00.

As for `COc1ccc2[nH]c(C(=O)N3CC4(CCCCC4)CC3C(=O)N[C@H](C#N)C[C@@H]3CCNC3=O)cc2c1Cl` (single isomer, unassigned) [880 (Isomer 2)], the pEC50 is greater than 5.70.

As to `N#C[C@H](C[C@@H]1CCNC1=O)NC(=O)C1CC2(CCCCC2)CN1C(=O)c1cc2cccc(Cl)c2[nH]1` (single isomer, unassigned) [984 (Isomer 1)], the negative-log EC50 (pEC50) was greater than 5.70.

In the case of `N#C[C@H](C[C@@H]1CCNC1=O)NC(=O)C1CC2(CCCCC2)CN1C(=O)c1cc2cccc(Cl)c2[nH]1` (single isomer, unassigned) [984 (Isomer 2)], the pEC50 was less than 4.52.

As to `N#C[C@H](C[C@@H]1CCNC1=O)NC(=O)C1CC2(CCCCC2)CN1C(=O)c1cc2ccc(Cl)c(Cl)c2[nH]1` (single isomer, unassigned) [986 (Isomer 1)], the pEC50 was greater than 5.70.

As for `N#C[C@H](C[C@@H]1CCNC1=O)NC(=O)C1CC2(CCCCC2)CN1C(=O)c1cc2ccc(Cl)c(Cl)c2[nH]1` (single isomer, unassigned) [986 (Isomer 2)], the negative logarithm of the EC50 (pEC50) was less than 4.52.

For the molecule `COc1cccc2[nH]c(C(=O)N[C@@H](CC3CC3)C(=O)N[C@](C)(C#N)CC3CCNC3=O)cc12` (single isomer, unassigned) [1055 (Isomer 1)], the pEC50 was less than 4.52.

For the molecule `CC1(C)CCC(C[C@@H](C#N)NC(=O)[C@H](CC2CC2)NC(=O)c2cc3cccc(Cl)c3[nH]2)C(=O)N1` (single isomer, unassigned) [Compound 749 (Isomer 2)], the pEC50 was 5.00 to 5.70.

As to `CC(C)C[C@H](NC(=O)c1nc2ncccc2[nH]1)C(=O)N[C@H](C#N)C[C@@H]1CCNC1=O` [Compound 131, N-[(1S)-1-[[(1S)-1-cyano-2-[(3S)-2-oxopyrrolidin-3-yl]ethyl]carbamoyl]-3-methyl-butyl]-1H-imidazo[4,5-b]pyridine-2-carboxamide], the pEC50 is greater than 5.70.

As for `COc1cccc2[nH]c(C(=O)N[C@@H](CC(C)C)C(=O)N[C@H](/C=C/S(C)(=O)=O)C[C@@H]3CCNC3=O)cc12` [Compound 136, 4-methoxy-N-[(1S)-3-methyl-1-[[(E,1S)-3-methylsulfonyl-1-[[(3S)-2-oxopyrrolidin-3-yl]methyl]allyl]carbamoyl]butyl]-1H-indole-2-carboxamide], the pEC50 was greater than 5.70.

With `COc1cccc2[nH]c(C(=O)N[C@H](C(=O)N[C@H](C#N)C[C@@H]3CCNC3=O)[C@@H]3Cc4ccccc4O3)cc12` [Compound 147, N-((S)-2-(((S)-1-cyano-2-((S)-2-oxopyrrolidin-3-yl)ethyl)amino)-1-((S)-2,3-dihydrobenzofuran-2-yl)-2-oxoethyl)-4-methoxy-1H-indole-2-carboxamide], the negative-log EC50 (pEC50) was less than 4.52.

As to `COc1cccc2[nH]c(C(=O)N[C@H](C(=O)N[C@H](C#N)C[C@@H]3CCNC3=O)C3Cc4ccccc4C3)cc12` [Compound 149, N-[(1S)-2-[[(1S)-1-cyano-2-[(3S)-2-oxopyrrolidin-3-yl]ethyl]amino]-1-indan-2-yl-2-oxo-ethyl]-4-methoxy-1H-indole-2-carboxamide], the pEC50 was 5.00 to 5.70.

Turning to `COc1cccc2[nH]c(C(=O)N[C@@H](Cc3cccc(Cl)c3)C(=O)N[C@H](C#N)C[C@@H]3CCNC3=O)cc12` [Compound 153], the negative logarithm of the EC50 (pEC50) is 4.52 to 5.00.

As to `COc1cccc2[nH]c(C(=O)N3C[C@H](OC(C)(C)C)C[C@H]3C(=O)N[C@H](C#N)C[C@@H]3CCNC3=O)cc12` [Compound 165, (2S,4R)-4-(tert-butoxy)-N-((S)-1-cyano-2-((S)-2-oxopyrrolidin-3-yl)ethyl)-1-(4-methoxy-1H-indole-2-carbonyl)pyrrolidine-2-carboxamide], the negative-log EC50 (pEC50) was less than 4.52.

Turning to `COc1cccc2[nH]c(C(=O)N3CCC4(CC4)C[C@H]3C(=O)N[C@H](C#N)C[C@@H]3CCNC3=O)cc12` [Compound 183, (S)-N-((S)-1-cyano-2-((S)-2-oxopyrrolidin-3-yl)ethyl)-6-(4-methoxy-1H-indole-2-carbonyl)-6-azaspiro[2.5]octane-5-carboxamide], the negative logarithm of the EC50 (pEC50) is 5.00 to 5.70.

With `N#C[C@H](C[C@@H]1CCNC1=O)NC(=O)[C@@H]1C[C@@H](c2ccccc2)CN1C(=O)/C=C/c1ccc(Cl)cc1F` [Compound 209, (2S,4S)-1-((E)-3-(4-chloro-2-fluorophenyl)acryloyl)-N-((S)-1-cyano-2-((S)-2-oxopyrrolidin-3-yl)ethyl)-4-phenylpyrrolidine-2-carboxamide], the pEC50 was 5.00 to 5.70.

For the molecule `N#C[C@H](C[C@@H]1CCNC1=O)NC(=O)[C@@H]1CCCNN1C(=O)/C=C/c1ccc(Cl)cc1F` [Compound 213, (3S)-2-[(E)-3-(4-chloro-2-fluoro-phenyl)prop-2-enoyl]-N-[(1S)-1-cyano-2-[(3S)-2-oxopyrrolidin-3-yl]ethyl]hexahydropyridazine-3-carboxamide], the pEC50 was less than 4.52.

Take `COc1cccc2[nH]c(C(=O)N[C@@H](CC(C)C)C(=O)N[C@H](C#N)Cc3cncn3C)cc12` [Compound 225]: the pEC50 is less than 4.52.

`COc1cccc2[nH]c(C(=O)N[C@@H](CC(C)C)C(=O)N[C@H](C#N)Cc3cn(C)cn3)cc12` [Compound 227, N-[(1S)-1-[[(1S)-1-cyano-2-(1-methylimidazol-4-yl)ethyl]carbamoyl]-3-methyl-butyl]-4-methoxy-1H-indole-2-carboxamide]: the pEC50 is less than 4.52.

Turning to `N#C[C@H](C[C@@H]1CCNC1=O)NC(=O)[C@H](CC1CC1)N1CCc2cc[nH]c2C1=O` [Compound 267, (2S)-N-[(1S)-1-cyano-2-[(3S)-2-oxopyrrolidin-3-yl]ethyl]-3-cyclopropyl-2-(7-oxo-4,5-dihydro-1H-pyrrolo[2,3-c]pyridin-6-yl)propanamide], the pEC50 was greater than 5.70.

As for `N#C[C@H](C[C@@H]1CCNC1=O)NC(=O)[C@@H](CC1CC1)N1CCc2cc[nH]c2C1=O` [Compound 267A, (2R)-N-[(1S)-1-cyano-2-[(3S)-2-oxopyrrolidin-3-yl]ethyl]-3-cyclopropyl-2-(7-oxo-4,5-dihydro-1H-pyrrolo[2,3-c]pyridin-6-yl)propanamide], the pEC50 is less than 4.52.

For the molecule `N#C[C@H](C[C@@H]1CCNC1=O)NC(=O)[C@H](CC1CC1)n1ccc2[nH]cnc2c1=O` [Compound 269, (2S)-N-[(1S)-1-cyano-2-[(3S)-2-oxopyrrolidin-3-yl]ethyl]-3-cyclopropyl-2-(4-oxo-3H-imidazo[4,5-c]pyridin-5-yl)propanamide], the negative logarithm of the EC50 (pEC50) is less than 4.52.

`CN1CCCC[C@]12CCN([C@H](CC1CC1)C(=O)N[C@H](C#N)C[C@@H]1CCNC1=O)C2=O` [Compound 273A, (2R)-N-[(1S)-1-cyano-2-[(3S)-2-oxopyrrolidin-3-yl]ethyl]-3-cyclopropyl-2-[(5R)-6-methyl-1-oxo-2,6-diazaspiro[4.5]decan-2-yl]propanamide]: the pEC50 was less than 4.52.

Take `CN1CCCC[C@@]12CCN([C@H](CC1CC1)C(=O)N[C@H](C#N)C[C@@H]1CCNC1=O)C2=O` [Compound 273B, (2R)-N-[(1S)-1-cyano-2-[(3S)-2-oxopyrrolidin-3-yl]ethyl]-3-cyclopropyl-2-[(5S)-6-methyl-1-oxo-2,6-diazaspiro[4.5]decan-2-yl]propanamide]: the pEC50 was less than 4.52.

Take `CN1CCCC[C@]12CCN([C@@H](CC1CC1)C(=O)N[C@H](C#N)C[C@@H]1CCNC1=O)C2=O` [Compound 273C, (2S)-N-[(1S)-1-cyano-2-[(3S)-2-oxopyrrolidin-3-yl]ethyl]-3-cyclopropyl-2-[(5R)-6-methyl-1-oxo-2,6-diazaspiro[4.5]decan-2-yl]propanamide]: the pEC50 was 5.00 to 5.70.

Consider `COc1cccc2[nH]c(C(=O)N[C@@H](CC3CC3)C(=O)N[C@@]3(C#N)CCc4cccnc4C3)cc12` [Compound 279], for which the negative-log EC50 (pEC50) was less than 4.52.

In the case of `COc1cccc2[nH]c(C(=O)N3C[C@H]4CCC[C@H]4[C@H]3C(=O)N[C@H](C#N)C[C@@H]3CCNC3=O)cc12` [Compound 305], the negative logarithm of the EC50 (pEC50) was greater than 5.70.

Regarding `COc1cccc2[nH]c(C(=O)N[C@@H](CC(C)C)C(=O)N[C@@H](C[C@@H]3CCNC3=O)C(C#N)Nc3ccccc3)cc12` (stereo partly drawn) [Compound 327, N-[(1S)-1-[[(1S)-2-anilino-2-cyano-1-[[(3S)-2-oxopyrrolidin-3-yl]methyl]ethyl]carbamoyl]-3-methyl-butyl]-4-methoxy-1H-indole-2-carboxamide], the pEC50 was greater than 5.70.

In the case of `CCCN1C(=N)C([C@H](C[C@@H]2CCNC2=O)NC(=O)[C@H](CC(C)C)NC(=O)c2cc3c(OC)cccc3[nH]2)OC1=O` (stereo partly drawn) [Compound 355, N-((2S)-1-(((1 S)-1-(4-imino-2-oxo-3-propyloxazolidin-5-yl)-2-((S)-2-oxopyrrolidin-3-yl)ethyl)amino)-4-methyl-1-oxopentan-2-yl)-4-methoxy-1H-indole-2-carboxamide], the negative logarithm of the EC50 (pEC50) is 5.00 to 5.70.
